# Test results reported in US12195482B1 (Arcus Biosciences, Inc., priority 2022, dated 2025).
# pIC50: −log10 of the molar value.
# Experiments:
# recombinant human TYRO3 = molecular target: T1, recombinant human TYRO3 (Homo sapiens, UniProt Q06418); test: Biochemical potency, HTRF KinEASE-TK kinase assay; conditions: 1 nM TYRO3, 700 μM ATP
# T1 construct: purchased Invitrogen
# T1 sequence (Q06418 41-890): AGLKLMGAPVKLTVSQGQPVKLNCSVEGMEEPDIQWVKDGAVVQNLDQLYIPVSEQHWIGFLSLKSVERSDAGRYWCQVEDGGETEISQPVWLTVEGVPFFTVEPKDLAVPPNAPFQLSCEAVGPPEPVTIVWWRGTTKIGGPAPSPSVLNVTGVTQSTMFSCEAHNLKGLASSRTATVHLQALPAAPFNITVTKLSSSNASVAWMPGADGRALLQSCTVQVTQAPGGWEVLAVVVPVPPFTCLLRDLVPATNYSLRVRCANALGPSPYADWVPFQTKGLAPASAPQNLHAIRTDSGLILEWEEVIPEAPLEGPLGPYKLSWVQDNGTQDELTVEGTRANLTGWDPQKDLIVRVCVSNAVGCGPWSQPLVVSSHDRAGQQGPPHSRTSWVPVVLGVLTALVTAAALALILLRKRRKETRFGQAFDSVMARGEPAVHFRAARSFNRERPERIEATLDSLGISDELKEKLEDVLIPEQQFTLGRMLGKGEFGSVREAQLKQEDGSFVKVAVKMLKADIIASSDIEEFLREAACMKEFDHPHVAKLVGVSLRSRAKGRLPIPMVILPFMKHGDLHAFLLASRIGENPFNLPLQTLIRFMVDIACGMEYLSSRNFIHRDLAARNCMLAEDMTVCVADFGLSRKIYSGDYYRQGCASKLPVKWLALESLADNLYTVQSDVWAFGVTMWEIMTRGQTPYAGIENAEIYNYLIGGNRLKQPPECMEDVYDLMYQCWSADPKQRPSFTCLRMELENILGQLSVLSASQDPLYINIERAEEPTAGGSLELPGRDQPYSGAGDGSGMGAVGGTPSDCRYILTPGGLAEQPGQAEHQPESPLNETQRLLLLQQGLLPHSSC
# Method in brief: (§1)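 Enzyme (AXL 5 nM; TYRO3 or MER 1 nM final) was preincubated with compound for 1 h at RT, then reacted for 2 h at RT with 800 nM biotinylated TK substrate and 700 µM ATP in HEPES pH 7.4, MgCl2, DTT, BSA, 1% DMSO. Percent activity came from the HTRF 665/620 ratio.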
# recombinant human MER = molecular target: T2, recombinant human MER (Homo sapiens, UniProt Q12866); test: Biochemical potency, HTRF KinEASE-TK kinase assay; conditions: 1 nM MER, 700 μM ATP
# T2 construct: purchased Invitrogen
# T2 sequence (Q12866 21-999): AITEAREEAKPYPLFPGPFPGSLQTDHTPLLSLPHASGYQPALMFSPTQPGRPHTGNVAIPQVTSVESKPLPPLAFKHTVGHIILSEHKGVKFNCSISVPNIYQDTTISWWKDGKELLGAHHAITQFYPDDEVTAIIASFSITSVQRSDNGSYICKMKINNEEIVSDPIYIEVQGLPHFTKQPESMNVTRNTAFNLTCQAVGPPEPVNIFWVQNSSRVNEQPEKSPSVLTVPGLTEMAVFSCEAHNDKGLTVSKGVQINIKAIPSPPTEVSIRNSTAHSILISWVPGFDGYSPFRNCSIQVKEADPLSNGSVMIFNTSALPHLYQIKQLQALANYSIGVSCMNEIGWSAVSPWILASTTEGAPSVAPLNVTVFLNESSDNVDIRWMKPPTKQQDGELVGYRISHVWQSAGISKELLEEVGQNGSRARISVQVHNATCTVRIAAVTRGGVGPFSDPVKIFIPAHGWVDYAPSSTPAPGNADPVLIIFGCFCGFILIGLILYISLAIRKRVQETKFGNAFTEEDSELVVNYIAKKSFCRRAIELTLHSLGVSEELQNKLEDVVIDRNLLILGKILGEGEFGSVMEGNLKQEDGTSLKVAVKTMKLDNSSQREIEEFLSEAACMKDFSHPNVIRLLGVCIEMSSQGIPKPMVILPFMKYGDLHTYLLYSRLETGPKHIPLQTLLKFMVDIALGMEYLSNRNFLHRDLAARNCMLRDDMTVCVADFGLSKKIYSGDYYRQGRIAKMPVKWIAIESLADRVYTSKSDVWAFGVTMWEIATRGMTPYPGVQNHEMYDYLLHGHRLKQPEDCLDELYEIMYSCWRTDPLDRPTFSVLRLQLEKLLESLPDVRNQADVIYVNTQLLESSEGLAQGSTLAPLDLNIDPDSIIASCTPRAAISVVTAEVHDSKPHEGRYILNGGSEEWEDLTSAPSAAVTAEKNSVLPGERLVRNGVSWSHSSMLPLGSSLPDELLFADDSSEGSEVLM
# Method in brief: as §1
Structure (SMILES),pIC50 (recombinant human TYRO3),pIC50 (recombinant human MER)
"Cc1cnc(C)c(-c2ccc(-c3c[nH]c4ncc(-c5ccc6c(c5)CC[C@@H](N5C7COCC5C7)CC6)cc34)cc2)n1 [Example 53, 6-[(7S)-2-{3-[4-(3,6-Dimethylpyrazin-2-yl)phenyl]-1H-pyrrolo[2,3-b]pyridin-5-yl}-6,7,8,9-tetrahydro-5H-benzo[7]annulen-7-yl]-3-oxa-6-azabicyclo[3.1.1]heptane]",6.00 to 7.00,6.00 to 7.00
"COc1ccnc(-c2ccc(-c3c[nH]c4ncc(-c5ccc6c(c5)CC[C@@H](N5C7COCC5C7)CC6)cc34)cc2)c1C [Example 86, 6-[(7S)-3-[3-[4-(4-Methoxy-3-methylpyridin-2-yl)phenyl]-1H-pyrrolo[2,3-b]pyridin-5-yl]-6,7,8,9-tetrahydro-5H-benzo[7]annulen-7-yl]-3-oxa-6-azabicyclo[3.1.1]heptane]",6.00 to 7.00,6.00 to 7.00
"COc1cc(-c2n[nH]c3ncc(-c4ccc5c(c4)CC[C@@H](N4C6COCC4C6)CC5)cc23)ccc1-c1ccccn1 [Example 160, 6-[(7S)-2-{3-[3-Methoxy-4-(pyridin-2-yl)phenyl]-2H-pyrazolo[3,4-b]pyridin-5-yl}-6,7,8,9-tetrahydro-5H-benzo[7]annulen-7-yl]-3-oxa-6-azabicyclo[3.1.1]heptane]",6.00 to 7.00,6.00 to 7.00
"Cc1ccnnc1-c1ccc(-c2c[nH]c3ncc(-c4ccc5c(c4)CC[C@@](C)(N4CCC[C@H]4C)CC5)cc23)cc1 [Example 51, 4-methyl-3-(4-{5-[(7S)-7-Methyl-7-[(2R)-2-methylpyrrolidin-1-yl]-6,7,8,9-tetrahydro-5H-benzo[7]annulen-2-yl]-1H-pyrrolo[2,3-b]pyridin-3-yl}phenyl)pyridazine]",> 7.00,> 7.00
"Cc1nncn1-c1ccc(-c2n[nH]c3ncc(-c4ccc5c(c4)CC[C@@H](N4C6COCC4C6)CC5)cc23)cc1 [Example 11, 6-[(7S)-2-{3-[4-(3-Methyl-4H-1,2,4-triazol-4-yl)phenyl]-1H-pyrazolo[3,4-b]pyridin-5-yl}-6,7,8,9-tetrahydro-5H-benzo[7]annulen-7-yl]-3-oxa-6-azabicyclo[3.1.1]heptane]",< 6.00,< 6.00
"Cc1cc(C)c(-c2ccc(-c3n[nH]c4ncc(-c5ccc6c(c5)CC[C@@H](N5C7COCC5C7)CC6)cc34)cc2)nn1 [Example 77, 6-[(7S)-2-{3-[4-(4,6-Dimethylpyridazin-3-yl)phenyl]-1H-pyrazolo[3,4-b]pyridin-5-yl}-6,7,8,9-tetrahydro-5H-benzo[7]annulen-7-yl]-3-oxa-6-azabicyclo[3.1.1]heptane]",> 7.00,6.00 to 7.00
"Cc1cc(C)c(-c2ccc(-c3n[nH]c4ncc(-c5ccc6c(c5)CC[C@@](C)(N5CCC[C@H]5C)CC6)cc34)cc2)nn1 [Example 78, 4,6-Dimethyl-3-(4-{5-[(7S)-7-methyl-7-[(2R)-2-methylpyrrolidin-1-yl]-6,7,8,9-tetrahydro-5H-benzo[7]annulen-2-yl]-1H-pyrazolo[3,4-b]pyridin-3-yl}phenyl)pyridazine]",> 7.00,> 7.00
"Cc1cnc(-c2ccc(-c3c[nH]c4ncc(-c5ccc6c(c5)CC[C@@H](N5C7COCC5C7)CC6)cc34)cc2)c(C)n1 [Example 50, 6-[(7S)-2-{3-[4-(3,5-Dimethylpyrazin-2-yl)phenyl]-1H-pyrrolo[2,3-b]pyridin-5-yl}-6,7,8,9-tetrahydro-5H-benzo[7]annulen-7-yl]-3-oxa-6-azabicyclo[3.1.1]heptane]",6.00 to 7.00,6.00 to 7.00
